Laboratory results: patent publication US20240165281A1, “DUAL MODE RADIOTRACER AND THERAPEUTICS” (Technische Universität München, priority 2021, published 2024)
pIC50: −log10 of the molar value.

What was measured:
PSMA = target: T1, PSMA (Homo sapiens, UniProt Q04609); assay: PSMA affinity (IC50), competition with [125I]I-BA-KuE on LNCaP cells; type: binding; details: natLu complex, on ice 60 min, read-out: IC50
T1 construct: PSMA-positive LNCAP cells (300265; Cell Lines Service, Eppelheim, Germany); host or cells: LNCaP cells
Protocol: A mixture of trypsin and EDTA (0.05%, 0.02%) in PBS (Biochrom) was used in order to harvest cells. Cells were counted with a Neubauer hemocytometer (Paul Marienfeld, Lauda-Königshofen, Germany).
Affinity Determinations (IC50)
In the case of metal-complexed ligands, the crude reaction mixture was diluted analogously, without further purification. Cells were harvested 24±2 hours prior to the experiment and seeded in 24-well plates (1.5×10^5 cells in 1 mL/well). […] The media of both steps were combined in one fraction and represent the amount of free radioligand. Afterwards, the cells were lysed with 250 μL of 1 M aqueous NaOH for at least 10 min. After a washing step (250 μL of 1 M NaOH), both fractions, representing the amount of bound ligand, were united. Quantification of all collected fractions was accomplished in a γ-counter. PSMA-affinity determinations were carried out at least three times per ligand.

[1] = target: T2, Human Serum Albumin (HSA) (Homo sapiens, UniProt P02768); assay: Human serum albumin (HSA) binding by high performance affinity chromatography (HPAC); type: in vitro ADME; details: Chiralpak HSA column
T2 construct: purchased Daicel H13H-2433
Protocol: Determination of Human Serum Albumin (HSA) Binding by High Performance Affinity Chromatography (HPAC)
HSA binding of the PSMA-addressing ligands was determined according to a previously published procedure via HPLC (Valko, K.; Nunhuck, S.; Bevan, C.; Abraham, M. H.; Reynolds, D. P. Journal of pharmaceutical sciences 2003, 92, 2236-2248). A Chiralpak HSA column (50×3 mm, 5 μm, H13H-2433, Daicel, Tokyo, Japan) was used at a constant flow rate of 0.5 mL/min at rt. Mobile phase A was a freshly prepared 50 mM aqueous solution of NH4OAc (pH 6.9) and mobile phase B was isopropanol (HPLC grade, VWR). The applied gradient for all experiments was 100% A (0 to 3 min), followed by 80% A (3 to 40 min). Prior to the experiment, the column was calibrated using nine reference substances with a HSA binding, known from literature, in the range of 13 to 99% (Valko, K.; Nunhuck, S.; Bevan, C.; Abraham, M. H.; Reynolds, D. P. Journal of pharmaceutical sciences 2003, 92, 2236-2248; Yamazaki, K.; Kanaoka, M. Journal of Pharmaceutical sciences 2004, 93, 1480-1494). All substances, including the examined PSMA ligands, were dissolved in a 1:1 mixture (v/v) of isopropanol and a 50 mM aqueous solution of NH4OAc (pH6.9) with a final concentration of 0.5 mg/mL. Non-linear regression was established with the OriginPro 2016G software (Northampton, United States) (FIG. 8).

LNCaP tumor-bearing mice = assay: μSPECT/CT imaging with tumor uptake; type: in vivo
Protocol: Static images were recorded of sacrificed mice, 24 h p.i. directly after blood collection, with an acquisition time of 45 min using the HE-GP-RM collimator and a step-wise multi-planar bed movement. For imaging studies, a MILabs VECTor4 small-animal SPECT/PET/OI/CT from MILabs (Utrecht, Netherlands) was applied. Furthermore, data were reconstructed using the MILabs-Rec software (version 10.02) and a pixel-based Similarity-Regulated Ordered Subsets Expectation Maximization (SROSEM) algorithm with a window-based scatter correction (20% below and 20% above the photopeak, respectively). Moreover, further data analysis was accomplished using the PMOD4.0 software acquired from PMOD TECHNOLOGIES LLC (Zurich, Switzerland) at defined settings (voxel size CT: 80 μm, voxel size SPECT: 0.8 mm, 1.6 mm (FWHM) Gaussian blurring post processing filter, with calibration factor in kBq/mL and decay correction and no attenuation correction).

[2] = Apparent molecular weight (MWapp)
[3] = test system: LNCaP tumor-bearing male CB-17 SCID mice; assay: Biodistribution studies 24 h p.i.
Protocol: Approximately 3-7 MBq (0.1-0.2 nmol) of the radioactive-labelled PSMA inhibitors were injected into the tail vein of LNCaP tumor-bearing male CB-17 SCID mice and sacrificed after 24 h post injection. Selected organs were removed, weighted and measured in a γ-counter. Results are all decay corrected and given in % injected dose per gram of tissue (% iD/g). Tumor-to-organ ratios are calculated from animals' individual ratios and are given as mean±standard deviation.

[4] = mean, listed as [^177Lu]Lu-2C013

T2 sequence (P02768 25-609): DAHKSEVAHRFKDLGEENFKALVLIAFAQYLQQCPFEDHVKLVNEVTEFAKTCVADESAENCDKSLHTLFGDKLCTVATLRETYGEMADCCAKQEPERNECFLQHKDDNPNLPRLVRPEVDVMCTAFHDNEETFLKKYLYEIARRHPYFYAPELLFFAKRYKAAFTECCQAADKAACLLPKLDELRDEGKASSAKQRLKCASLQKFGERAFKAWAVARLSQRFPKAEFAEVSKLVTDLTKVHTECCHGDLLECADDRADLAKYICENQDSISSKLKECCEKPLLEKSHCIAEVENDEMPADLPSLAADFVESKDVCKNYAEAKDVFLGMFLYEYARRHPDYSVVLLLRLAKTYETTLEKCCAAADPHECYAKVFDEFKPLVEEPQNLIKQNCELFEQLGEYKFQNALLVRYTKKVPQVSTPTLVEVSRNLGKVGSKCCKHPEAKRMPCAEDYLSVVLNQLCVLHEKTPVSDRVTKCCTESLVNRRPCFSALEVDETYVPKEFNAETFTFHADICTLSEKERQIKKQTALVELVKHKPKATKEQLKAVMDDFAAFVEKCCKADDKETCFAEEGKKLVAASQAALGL
T1 sequence (Q04609 whole entry): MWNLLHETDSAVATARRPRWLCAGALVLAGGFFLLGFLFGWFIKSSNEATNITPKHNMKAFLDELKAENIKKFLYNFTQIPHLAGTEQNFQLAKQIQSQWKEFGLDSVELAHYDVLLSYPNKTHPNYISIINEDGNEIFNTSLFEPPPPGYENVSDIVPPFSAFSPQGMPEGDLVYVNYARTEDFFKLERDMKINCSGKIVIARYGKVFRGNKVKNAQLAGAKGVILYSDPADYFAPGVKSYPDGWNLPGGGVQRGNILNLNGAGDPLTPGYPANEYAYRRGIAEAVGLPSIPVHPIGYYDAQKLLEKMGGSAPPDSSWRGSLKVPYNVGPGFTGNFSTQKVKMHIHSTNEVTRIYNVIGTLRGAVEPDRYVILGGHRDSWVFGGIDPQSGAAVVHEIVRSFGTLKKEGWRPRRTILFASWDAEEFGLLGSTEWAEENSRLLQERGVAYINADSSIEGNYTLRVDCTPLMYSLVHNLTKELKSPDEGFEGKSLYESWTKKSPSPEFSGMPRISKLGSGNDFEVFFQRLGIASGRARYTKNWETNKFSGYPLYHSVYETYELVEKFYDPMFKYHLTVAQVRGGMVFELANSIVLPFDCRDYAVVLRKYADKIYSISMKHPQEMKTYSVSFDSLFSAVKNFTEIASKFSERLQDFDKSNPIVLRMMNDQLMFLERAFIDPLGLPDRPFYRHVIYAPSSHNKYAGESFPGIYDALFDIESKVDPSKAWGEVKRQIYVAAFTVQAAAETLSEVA

CC(C)(C)[Si](F)(c1ccc(C(=O)NC[C@@H](NC(=O)CN2CCN(CC(=O)O)CCN(CC(=O)O)CCN(CC(=O)O)CC2)C(=O)N[C@H](CO)C(=O)NCCC(=O)NCCC(=O)NCCC[C@@H](NC(=O)CC[C@H](NC(=O)N[C@@H](CCC(=O)O)C(=O)O)C(=O)O)C(=O)O)cc1)C(C)(C)C [Compound 2C013]
pIC50 (PSMA): 8.35
HSA (HPAC) [1]: 88.6%
kidney uptake (FIG. 5, in words) (LNCaP tumor-bearing mice; 24 h p.i., versus [177Lu]rhPSMA-7.3 and [177Lu]PSMA-I&T): lower kidney uptake than the previously known compounds
tumor uptake of the scanned mouse (FIG. 1) (LNCaP tumor-bearing mice; μSPECT/CT scan, single animal): 9.8 % iD/g
MWapp [2]: 17.6 kDa
Kidneys (24 h) ([3]; Table 1): 0.95 ± 0.42 % iD/g
Tumor (24 h) ([3]; Table 1): 7.59 ± 1.23 % iD/g
In vivo biodistribution (24 h p.i.) blood ([3]; Table 6): 0.0013 ± 0.0007 % iA/g
In vivo biodistribution (24 h p.i.) kidney ([3]; Table 6): 0.95 ± 0.42 % iA/g
In vivo biodistribution (24 h p.i.) tumor ([3]; Table 6): 7.59 ± 1.23 % iA/g
uptake in adrenals ([3]; mean): 0.0618 % iD/g
uptake in blood ([3]; mean): 0.0013 % iD/g
uptake in intestine ([3]; mean): 0.3354 % iD/g
uptake in kidney ([3]; mean): 0.9488 % iD/g
uptake in liver ([3]; mean): 0.2519 % iD/g
uptake in lung ([3]; mean): 0.0438 % iD/g
uptake in pancreas ([3]; mean): 0.0165 % iD/g
uptake in parotid gl. ([3]; mean): 0.0554 % iD/g
uptake in spleen ([3]; mean): 0.3891 % iD/g
uptake in stomach ([3]; mean): 0.0846 % iD/g
uptake in tumor ([3]; mean): 7.5897 % iD/g
uptake in bone ([3]; mean, listed as [^177Lu]2C013): 0.037 % iD/g
uptake in heart ([3]; mean, listed as [^177Lu]2C013): 0.019 % iD/g
uptake in muscle ([3]; mean, listed as [^177Lu]2C013): 0.004 % iD/g
uptake in submand. gl. ([3]; mean, listed as [^177Lu]2C013): 0.036 % iD/g
uptake in bone [3, 4]: 0.0370 % iD/g
uptake in heart [3, 4]: 0.0190 % iD/g
uptake in muscle [3, 4]: 0.0040 % iD/g
uptake in submand. gl. [3, 4]: 0.0360 % iD/g
tumor-to-organ ratio adrenals ([3]; n = 4, mean): 131.27
tumor-to-organ ratio blood ([3]; n = 4, mean): 6891.48
tumor-to-organ ratio bone ([3]; n = 4, mean): 208.29
tumor-to-organ ratio heart ([3]; n = 4, mean): 403.61
tumor-to-organ ratio intestine ([3]; n = 4, mean): 60.29
tumor-to-organ ratio kidney ([3]; n = 4, mean): 9.04
tumor-to-organ ratio liver ([3]; n = 4, mean): 31.82
tumor-to-organ ratio lung ([3]; n = 4, mean): 189.80
tumor-to-organ ratio muscle ([3]; n = 4, mean): 2075.70
tumor-to-organ ratio pancreas ([3]; n = 4, mean): 492.10
tumor-to-organ ratio parotid gl. ([3]; n = 4, mean): 140.11
tumor-to-organ ratio spleen ([3]; n = 4, mean): 21.03
tumor-to-organ ratio stomach ([3]; n = 4, mean): 145.92
tumor-to-organ ratio submand. gl. ([3]; n = 4, mean): 211.04
Activity accumulation adrenals ([3]; repeated dataset, n = 5, mean): 0.1327 % ID/g
Activity accumulation blood ([3]; repeated dataset, n = 5, mean): 0.0016 % ID/g
Activity accumulation bone ([3]; repeated dataset, n = 5, mean): 0.1331 % ID/g
Activity accumulation heart ([3]; repeated dataset, n = 5, mean): 0.023 % ID/g
Activity accumulation intestine ([3]; repeated dataset, n = 5, mean): 0.0615 % ID/g
Activity accumulation kidney ([3]; repeated dataset, n = 5, mean): 1.0833 % ID/g
Activity accumulation liver ([3]; repeated dataset, n = 5, mean): 0.3202 % ID/g
Activity accumulation lung ([3]; repeated dataset, n = 5, mean): 0.0548 % ID/g
Activity accumulation muscle ([3]; repeated dataset, n = 5, mean): 0.0056 % ID/g
Activity accumulation pancreas ([3]; repeated dataset, n = 5, mean): 0.0173 % ID/g
Activity accumulation parotid gl. ([3]; repeated dataset, n = 5, mean): 0.063 % ID/g
Activity accumulation spleen ([3]; repeated dataset, n = 5, mean): 0.4246 % ID/g
Activity accumulation stomach ([3]; repeated dataset, n = 5, mean): 0.0349 % ID/g
Activity accumulation submand. gl. ([3]; repeated dataset, n = 5, mean): 0.038 % ID/g
Activity accumulation tumor ([3]; repeated dataset, n = 5, mean): 10.1512 % ID/g
tumor-to-organ ratio adrenals ([3]; repeated dataset, n = 5, mean): 78.58
tumor-to-organ ratio blood ([3]; repeated dataset, n = 5, mean): 6950.64
tumor-to-organ ratio bone ([3]; repeated dataset, n = 5, mean): 73.24
tumor-to-organ ratio heart ([3]; repeated dataset, n = 5, mean): 475.05
tumor-to-organ ratio intestine ([3]; repeated dataset, n = 5, mean): 263.86
tumor-to-organ ratio kidney ([3]; repeated dataset, n = 5, mean): 9.48
tumor-to-organ ratio liver ([3]; repeated dataset, n = 5, mean): 31.51
tumor-to-organ ratio lung ([3]; repeated dataset, n = 5, mean): 184.32
tumor-to-organ ratio muscle ([3]; repeated dataset, n = 5, mean): 1867.35
tumor-to-organ ratio pancreas ([3]; repeated dataset, n = 5, mean): 587.5
tumor-to-organ ratio parotid gl. ([3]; repeated dataset, n = 5, mean): 172.33
tumor-to-organ ratio spleen ([3]; repeated dataset, n = 5, mean): 25.43
tumor-to-organ ratio stomach ([3]; repeated dataset, n = 5, mean): 286.18
tumor-to-organ ratio submand. gl. ([3]; repeated dataset, n = 5, mean): 270.92
T/K-ratio ([3]; tumor/kidney, Table 1): 9.04 ± 3.09
